≈ marks a conversion by molar mass, not a printed value.
Tests used:
Cryptococcus neoformans = experiment: Antifungal activity against Cryptococcus neoformans assessed as fungal growth inhibition; format: functional, organism-based
[1] = tested on: Trichophyton mentagrophytes; experiment: Antifungal activity against Trichophyton mentagrophytes assessed as fungal growth inhibition; format: functional, organism-based
Candida albicans [2] = experiment: Antifungal activity against Candida albicans assessed as fungal growth inhibition; format: functional, organism-based
Aspergillus niger = experiment: Antifungal activity against Aspergillus niger assessed as fungal growth inhibition; format: functional, organism-based
Staphylococcus aureus [3] = experiment: Antimicrobial activity against methicillin-resistant Staphylococcus aureus assessed as microbial growth inhibition by broth microdilution method; format: functional
Escherichia coli [4] = experiment: Antimicrobial activity against Escherichia coli assessed as microbial growth inhibition by microdilution method; format: functional
Candida albicans [5] = experiment: Antimicrobial activity against Candida albicans assessed as microbial growth inhibition by microdilution method; format: functional
Pseudomonas aeruginosa [6] = experiment: Antibiofilm activity against Pseudomonas aeruginosa assessed as inhibition of biofilm formation incubated for 24 hrs by crystal violet method; format: functional, organism-based
Vibrio natriegens [7] = experiment: Antimicrobial activity against Vibrio natriegens ATCC 14048 assessed as microbial growth inhibition incubated for 48 hrs by spectrophotometry; format: functional
Vibrio natriegens [8] = experiment: Antimicrobial activity against Vibrio natriegens ATCC 14048 assessed as inhibition of bacterial adhesion incubated for 48 hrs by crystal staining method; format: functional
Candida albicans [9] = experiment: Antifungal activity against Candida albicans ATCC 2091 assessed as fungal growth inhibition incubated for 24 hrs by agar diffusion method; format: functional
Staphylococcus aureus [10] = experiment: Antibacterial activity against Staphylococcus aureus ATCC 6538 assessed as bacterial growth inhibition incubated for 24 hrs by agar diffusion method; format: functional
Pseudomonas aeruginosa [11] = experiment: Antibacterial activity against Pseudomonas aeruginosa ATCC 9027 assessed as bacterial growth inhibition incubated for 24 hrs by agar diffusion method; format: functional
Staphylococcus aureus [12] = experiment: Antibiofilm activity against Staphylococcus aureus ATCC 6538 assessed as inhibition of biofilm formation incubated for 24 hrs by crystal violet method; format: functional, organism-based; settings: ATCC 6538, 24 h
[13] = tested on: Mycobacterium tuberculosis; experiment: Antibacterial activity against […] assessed as bacterial growth inhibition; format: functional
Enterococcus faecalis = experiment: Antibiofilm activity against Vancomycin-resistant Enterococcus faecalis W1 assessed as inhibition of biofilm formation measured after 24 to 48 hrs by MTT assay; format: functional; settings: time 24-48 hrs
Staphylococcus aureus [14] = experiment: Antibiofilm activity against Methicillin-resistant Staphylococcus aureus B1 assessed as inhibition of biofilm formation measured after 24 to 48 hrs by MTT assay; format: functional; settings: time 24-48 hrs
Bacillus subtilis = experiment: Antibacterial activity against Bacillus subtilis assessed as bacterial growth inhibition; format: functional, organism-based
Staphylococcus aureus [15] = experiment: Antibacterial activity against Staphylococcus aureus assessed as bacterial growth inhibition; format: functional, organism-based
Micrococcus luteus [16] = experiment: Antibacterial activity against Micrococcus luteus assessed as bacterial growth inhibition; format: functional, organism-based
Pyricularia oryzae = experiment: Antifungal activity against Pyricularia oryzae assessed as fungal growth inhibition incubated for 16 hrs by inverted microscopy; format: functional
Corynebacterium xerosis = experiment: Antimicrobial activity against Corynebacterium xerosis assessed as microbial growth inhibition; format: functional
Micrococcus luteus [17] = experiment: Antimicrobial activity against Sarcina lutea assessed as microbial growth inhibition; format: functional
Acinetobacter baumannii = experiment: Antibiofilm activity against Acinetobacter baumannii ATCC 19606 assessed as inhibition of biofilm formation at 100 uM incubated for 24 hrs by crystal violet method relative to control; format: functional; set-up: scale not given: the % may be the effect or the level left
Mycolicibacterium phlei = experiment: Antibacterial activity against Mycobacterium phlei assessed as bacterial growth inhibition; format: functional, organism-based
Saccharomyces cerevisiae = experiment: Antifungal activity against Saccharomyces cerevisiae assessed as fungal growth inhibition; format: functional, organism-based
Escherichia coli [18] = experiment: Antibiofilm activity against Escherichia coli K12 ER2718 assessed as inhibition of biofilm formation incubated for 24 hrs by crystal violet method; format: functional, organism-based; settings: K12 ER2718, 24 h
Staphylococcus aureus [19] = experiment: Antibiofilm activity against Staphylococcus aureus ATCC 29213 assessed as inhibition of biofilm formation incubated for 24 hrs by crystal violet method; format: functional, organism-based; settings: ATCC 29213, 24 h

Question: For `CSc1c(-c2c(-c3c[nH]c4ccc(O)cc34)c(=O)n3c4ccc(O)cc4c4ccnc2c43)[n+](C)cn1C`, which IC50 (Cryptococcus neoformans) is on record?
Answer: Its IC50 is 7.9 µM.

Question: What about the MIC [1] of the same compound?
Answer: Its MIC is 31.5 µM.

Question: What about the IC50 (Candida albicans [2]) of the same compound?
Answer: The IC50 was 7.9 µM.

Question: For `CC(=O)[C@H]1N=C(c2c[nH]c3ccc(O)cc23)c2c(O)ccc3[nH]cc(c23)[C@H]1O`, which IC50 (Aspergillus niger) is on record?
Answer: Its IC50 is 85.2 µM.

Question: Which IC50 (Candida albicans [2]) does the source give for `CC(C)CC(=O)Nc1c(O)c(C(C[N+](C)(C)C)c2c[nH]c3cc(Br)ccc23)c2ccnc3c2c1NC=C3` (centres undefined) here?
Answer: Its IC50 is 14.2 µM.

Question: Which results are given for `O=C1Nc2ccccc2[C@@]1(O)Cc1cncc(Cc2c[nH]c3ccccc23)n1`?
Answer: MIC (Staphylococcus aureus [3]): 32.4 µM (≈ 12 µg/mL); MIC (Escherichia coli [4]): 27 µM; MIC (Candida albicans [5]): 32.4 µM

Question: For `Cn1cc(-c2csc(-c3cn(CCN)c4ccc(F)cc34)n2)c2ccccc21`, which IC50 (Pseudomonas aeruginosa [6]) is on record?
Answer: The IC50 was 9.9 µM.

Question: `C/N=C1\NC(Cc2c[nH]c3cc(Br)ccc23)C(=O)N1C` (centres undefined) was tested. Which MIC (Vibrio natriegens [7]) did it give?
Answer: The MIC was 0.03 µM (≈ 0.0101 µg/mL).

Question: And the MIC (Vibrio natriegens [8])?
Answer: The MIC was 298 µM (≈ 100 µg/mL).

Question: How did the “diameter of the inhibition zone (DIZ)” value (Candida albicans [9]) turn out when `COc1ccc2[nH]c3cnc(-c4c[nH]c5cc(O)ccc45)c(C(=O)O)c3c2c1` was run?
Answer: Its value is 9 mm.

Question: What about the “diameter of the inhibition zone (DIZ)” value (Staphylococcus aureus [10]) of the same compound?
Answer: Its value is 10 mm.

Question: And the “diameter of the inhibition zone (DIZ)” value (Pseudomonas aeruginosa [11])?
Answer: Its value is 7 mm.

Question: For `COCCn1cc(-c2nc(-c3c[nH]c4ccccc34)cs2)c2cc(F)ccc21`, which IC50 (Staphylococcus aureus [12]) is on record?
Answer: The IC50 was 0.7 µM.

Question: Which MIC [13] does the source give for `C=CC(C)(C)c1[nH]c2ccccc2c1/C=c1\[nH]c(=O)c2n(c1=O)CCC=2C1=c2c(=O)[nH]/c(=C\c3c(C(C)(C)C=C)[nH]c4ccccc34)c(=O)n2CC1` here?
Answer: The MIC was 9 µM (≈ 6.24 µg/mL).

Question: How did the MIC (Aspergillus niger) turn out when `Cn1cnc(C(=O)c2nc3c4c5c(nccc5c(C(C[N+](C)(C)C)c5c[nH]c6cc(Br)ccc56)c3o2)C=CN4)c1` (centres undefined) was run?
Answer: The MIC was 26.8 µM.

Question: With `O=C(C1=N[C@@H](c2c[nH]c3cc(Br)ccc23)CN1)c1c[nH]c2ccccc12` as the compound, how does the MIC (Staphylococcus aureus [3]) read?
Answer: The MIC was 15.4 µM (≈ 6.27 µg/mL).

Question: With `C/N=C1\NC(Cc2c[nH]c3cc(Br)c(Br)cc23)C(=O)N1C` (centres undefined) as the compound, how does the MIC (Vibrio natriegens [7]) read?
Answer: The MIC was 2.4 µM (≈ 0.994 µg/mL).

Question: With `CC(C)[C@@H]1NC(=O)[C@@H](C[C@]2(O)c3ccccc3N3C(=O)[C@@H](C)N[C@H]32)n2c1nc1ccccc1c2=O` as the compound, how does the BIC (Enterococcus faecalis) read?
Answer: Its BIC is 168.9 µM.

Question: What about the BIC (Staphylococcus aureus [14]) of the same compound?
Answer: Its BIC is 202.7 µM.

Question: What does the source list for `C[N+](C)(C)CC(c1c[nH]c2cc(Br)ccc12)c1c(O)c(O)c2c3c(nccc13)C=CN2` (centres undefined)?
Answer: IC50 (Bacillus subtilis): 4.2 µM; IC50 (Cryptococcus neoformans): 0.5 µM; IC50 [1]: 0.5 µM; IC50 (Staphylococcus aureus [15]): 4.2 µM; IC50 (Micrococcus luteus [16]): 4.2 µM; IC50 (Candida albicans [2]): 0.5 µM

Question: Which results are given for `O=C(O)[C@@H]1Cc2c[nH]c3ccc4oc5nc6ccc(O)cc6c-5c(c4c23)N1`?
Answer: IC50 (Cryptococcus neoformans): 11.1 µM; IC50 (Candida albicans [2]): 2.8 µM

Question: How did the IC50 (Candida albicans [2]) turn out when `Brc1ccc2c(-c3nc(-c4c[nH]c5ccccc45)c[nH]3)c[nH]c2c1` [NORTOPSENTIN B] was run?
Answer: The IC50 was 6.8 µM.

Question: For `Oc1ccc2nc3oc4ccc5[nH]cc6cc[nH]c(c-3c2c1)c4c65`, which IC50 (Cryptococcus neoformans) is on record?
Answer: Its IC50 is 6.4 µM.

Question: And the IC50 [1]?
Answer: The IC50 was 51.1 µM.

Question: And the IC50 (Aspergillus niger)?
Answer: Its IC50 is 12.8 µM.

Question: And the IC50 (Candida albicans [2])?
Answer: Its IC50 is 3.2 µM.

Question: For `CC(C)=CCn1cc(CC2NC(=O)C(C(C)C)NC2=O)c2ccccc21` (centres undefined), which MIC (Pyricularia oryzae) is on record?
Answer: Its MIC is 0.36 µM (≈ 0.127 µg/mL).

Question: What does the source list for `O=C1N=C(C(=O)c2c[nH]c3ccc(Br)cc23)N/C1=C\c1c[nH]c2ccccc12`?
Answer: MIC (Corynebacterium xerosis): 36.9 µM (≈ 16 µg/mL); MIC (Micrococcus luteus [17]): 36.9 µM (≈ 16 µg/mL)

Question: How did the IC50 (Candida albicans [2]) turn out when `C[N+](C)(C)CC(c1c[nH]c2ccccc12)c1c(O)c(O)c2c3c(nccc13)C=CN2` (centres undefined) was run?
Answer: Its IC50 is 19.9 µM.

Question: Which Activity (Acinetobacter baumannii) does the source give for `C=CC(C)(C)[C@@]12CCN(C)C1=Nc1cc(Br)ccc12` [FLUSTRAMINE C] here?
Answer: The Activity was 30%.

Question: `C=CC(C)(C)c1c(CCNC)c2ccc(Br)cc2n1CC=C(C)C` was tested. Which IC50 (Mycolicibacterium phlei) did it give?
Answer: Its IC50 is 7.7 µM.

Question: What about the IC50 (Micrococcus luteus [16]) of the same compound?
Answer: Its IC50 is 5.9 µM.

Question: And the IC50 (Saccharomyces cerevisiae)?
Answer: Its IC50 is 17.9 µM.

Question: What does the source list for `C=CC(C)(C)c1[nH]c2cc(Br)ccc2c1CCNC` [DESFORMYLFLUSTRABROMINE]?
Answer: IC50 (Escherichia coli [18]): 174 µM; IC50 (Staphylococcus aureus [19]): 70 µM

— ChEMBL document CHEMBL5113373, “Tryptophan derived natural marine alkaloids and synthetic derivatives as promising antimicrobial agents” (Eur J Med Chem, 2021)
